The target of experiment [1] is T1, bovine testes hyaluronidase (BTH) (Bos taurus, UniProt Q2YDK3).
T1 sequence (Q2YDK3 36-553): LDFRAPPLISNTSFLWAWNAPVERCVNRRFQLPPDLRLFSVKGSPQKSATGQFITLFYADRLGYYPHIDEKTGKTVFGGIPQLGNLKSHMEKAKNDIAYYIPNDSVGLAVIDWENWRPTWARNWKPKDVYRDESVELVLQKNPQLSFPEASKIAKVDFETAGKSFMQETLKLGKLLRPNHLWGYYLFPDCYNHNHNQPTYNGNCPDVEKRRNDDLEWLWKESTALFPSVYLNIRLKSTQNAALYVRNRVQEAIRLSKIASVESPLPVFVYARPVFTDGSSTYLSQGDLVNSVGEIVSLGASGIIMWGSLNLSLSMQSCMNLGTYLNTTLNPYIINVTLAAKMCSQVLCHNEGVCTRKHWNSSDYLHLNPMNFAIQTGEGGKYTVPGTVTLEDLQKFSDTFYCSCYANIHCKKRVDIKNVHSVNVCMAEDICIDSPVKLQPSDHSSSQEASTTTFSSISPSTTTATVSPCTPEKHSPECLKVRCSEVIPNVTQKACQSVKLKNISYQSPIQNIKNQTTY
The experiment can be described thus: Morgan-Elson assay at pH […]. It counts as biochemical. To be noted: read-out: IC50 [μM] / 3.5.

In experiment [2] the target is T1, bovine testes hyaluronidase (BTH). The experiment can be described thus: stains-all assay at pH […] and Morgan-Elson assay at pH […]. It is filed as biochemical. To be noted: read-out: IC50 [μM] / pH7.

On to `CCCCCCCCCCCCCCCC(=O)OC[C@H](O)[C@H]1OC(=O)C(O)=C1O` [6-palmitoyl-L-ascorbic acid], for which, in experiment [1], the IC50 came out at 8 µM.
On to `Oc1ccc(-c2[nH]c3ccccc3c2-c2ccccc2)cc1` [compound 12, 4-(3-Phenyl-1H-indol-2-yl)phenol], for which the IC50 in experiment [2] was found to be 107 µM.

Values taken from article PMC6245189 (Molecules, 2008).
